Columns and labels:
HeLa cells = assay: Pro-inflammatory cytokine release from THP-1 after exposure to compound-treated HeLa cells (ELISA); type: cell-based, human; conditions: for TNF-α secretion / immunostimulatory activity: HeLa cells treated with compound, FIG. 1
Protocol: The human cervical epithelium cell line HeLa and the mouse B16-F10 melanoma were purchased from American TCC and maintained in Dulbecco's modified eagle's media [D-MEM (Cellgro®, Herndon Va.)] supplemented with 10% fetal bovine serum (Sigma-Aldrich, St. Louis, Mo.). All cell stress/death-related treatments described below were performed using HeLa cells in initial screens. The human promonocytic leukemia THP-1 (ATCC, Manassas Va.) and pro-macrophage MonoMac6 cells were utilized as the reporter antigen presenting cells utilized in this study. Ziegler-Heitbrock et al., “Establishment of a human cell line (Mono Mac 6) with characteristics of mature monocytes” Int. J. Cancer 41:456-461 (1988). Both lines were maintained in RPMI-1640 media (Cellgro®) supplemented with 10% fetal bovine serum. Unless otherwise noted, all cells were maintained at 37° C. in a humidified incubator supplemented with 5% CO2.
The following list includes the small molecule compounds evaluated in this study: thapsigargin, thapsigargicin (MP Biomedicals, Irvine Calif.), 1,2-bis(o-aminophenoxy)ethane-N,N,N′,N′-tetraacetic Acid Tetra(acetoxymethyl) ester [BAPTA-AM, (EMD Biosciences, San Diego, Calif.)], ethyleneglycol-bis(β-aminoethyl)-N,N,N′,N′-tetraacetoxymethyl ester [EGTA-AM (EMD Biosciences)], 1,2-bis(2-aminophenoxy)ethane-N,N,N′,N′-tetraacetic acid […], tetrandrine, KCl, Amyloid peptide Aβ1-42, 1-Oleoyl-2-acetyl-sn-glycerol (OAG), calcimycin A23187, 2-aminoethyl diphenylborinate (2-APB), histamine, cyclopiazonic acid, 2,5-di-(t-butyl)-1,4-hydroquinone [BHQ (EMD Biosciences)], GdCl3, nicardipine hydrochloride, 1-(o-chloro-α,αdiphenylbenzyl)imidazole (clotrimazole), apamin, charybdotoxin, radicicol, brefeldin A, tunicamycin, tamoxifen, ionomycin, staurosporine, cis-diammineplatinum(II) dichloride (cisplatin), paclitaxel, methotrexate, cycloheximide, and rapamycin. Unless otherwise noted, all compounds were purchased from Sigma-Aldrich. Compounds were dissolved per manufacturer's recommendations prior to addition to HeLa cells in a range of concentrations based on the published literature and incubated between 1 minute to two days. The known mediators of inflammation pam3cys-ser-(lys)4, hydrochloride (Pam3Cys), bacterial flagellin, and lipopolysaccharide were purchased from EMD Biosciences.
Following cell stress/death, resulting cells/cell debris were collected, washed 3 times with excess phosphate-buffered saline, rapidly cycled through freeze/thaw (−80° C. to 25° C.) three times, and quantified by UV spectrophotometry (A280). To determine the presence of pro-inflammatory signals within stressed/dead cells, 40 μg of stressed/dead cell were added to 50,000 THP-1 and incubated for 18 hours. Supernatants were assessed for the presence of pro-inflammatory cytokines including tumor necrosis factor-α (TNF-α), interleukin 8 (IL-8), and IL-12 using commercially available ELISA systems.
A variety of different potential cell stress and cell death inducing agents were screened. […] (See FIG. 1).

[1] = tested on: Ca(2+)-ATPase from sarcoplasmic and endoplasmic reticula; conditions: activity not further specified; context Ca(2+)-ATPase inhibitory potency; cited from earlier work
[2] = tested on: NF-κB promoter (MonoMac-6 Clone C5); assay: NF-κB promoter luciferase reporter, MonoMac-6 Clone C5; type: cell-based, human; conditions: FIG. 11
Source text: A stably transfected DNA construct encoding a NF-κB promoter driving firefly luciferase expression was integrated into: i) human pre-monocytic cell line THP-1; and ii) human premonocytic cell line MonoMac-6. Briefly, DNA encoding a concatemerized NF-κB response element upstream of the firefly luciferase gene [Ting et al., “RIP mediates tumor necrosis factor receptor 1 activation of NF-kappaB but not Fas/APO-1-initiated apoptosis” EMBO J. November 15; 15(22):6189-96(1996)] was subcloned into the pEAK8 vector backbone (Edge Biosystems, Gaithersburg Md.) by standard molecular biology techniques. Electroporations were performed using 10 μg of DNA and 700,000 THP-1 or MonoMac6 cells using a Biorad Gene Pulser II electroporator (Biorad, Hercules Calif.), 0.4 cm electrocuvettes, and 200 V, 950 μF. Following electroporation, cells were allowed to recover for two days prior to selection with 300 ng/ml puromycin aminonucleoside (Sigma-Aldrich) for the generation of stably transfected clones. Luciferase expression was quantified using a Top Count NXT luminometer (Perkin Elmer, Wellesley Mass.). Briefly, 50,000 reporter cells were incubated with indicated concentrations of the mediators of inflammation listed for 18 hours in 96-well white plates prior to harvest and analysis.
A second stable NF-κB reporter construct transfectant was created using MonoMac-6 cells. […]

[3] = tested on: NF-κB promoter (THP-1 Clone A9); assay: NF-κB promoter luciferase reporter, THP-1 Clone A9; type: cell-based, human; conditions: 50,000 reporter cells, 18 hours; FIG. 10
Source text: A stably transfected DNA construct encoding a NF-κB promoter driving firefly luciferase expression was integrated into: i) human pre-monocytic cell line THP-1; and ii) human premonocytic cell line MonoMac-6. Briefly, DNA encoding a concatemerized NF-κB response element upstream of the firefly luciferase gene [Ting et al., “RIP mediates tumor necrosis factor receptor 1 activation of NF-kappaB but not Fas/APO-1-initiated apoptosis” EMBO J. November 15; 15(22):6189-96(1996)] was subcloned into the pEAK8 vector backbone (Edge Biosystems, Gaithersburg Md.) by standard molecular biology techniques. Electroporations were performed using 10 μg of DNA and 700,000 THP-1 or MonoMac6 cells using a Biorad Gene Pulser II electroporator (Biorad, Hercules Calif.), 0.4 cm electrocuvettes, and 200 V, 950 μF. […] Luciferase expression was quantified using a Top Count NXT luminometer (Perkin Elmer, Wellesley Mass.). […]
The THP-1-derived clone A9 recognition of the TLR ligands Pam-3-Cys (signaling through TLR2) and bacterial flagellin (signaling through TLR5), but not bacterial lipopolysaccharide (signaling through TLR4) was determined by monitoring NF-κB activity in 96-well white plate automated assays during TG incubation. […]

Compound	TNF-α secretion / immunostimulatory activity (HeLa cells)	also measured
CC(=O)O[C@H]1C(=O)[C@@]2(C)[C@H]([C@H](OC(=O)c3ccccc3)[C@]3(O)C[C@H](OC(=O)[C@H](O)[C@@H](NC(=O)c4ccccc4)c4ccccc4)C(C)=C1C3(C)C)[C@]1(OC(C)=O)CO[C@@H]1C[C@@H]2O [Taxol®, paclitaxel]	did not induce immunostimulatory activity	–
C/C=C(/C)C(=O)O[C@H]1C(C)=C2[C@H]([C@@H]1OC(=O)CCCCC)[C@@](C)(OC(C)=O)C[C@H](OC(=O)CCC)[C@@]1(O)[C@H]2OC(=O)[C@@]1(C)O [Thapsigargicin]	–	secretion of IL-8 from THP-1 (HeLa cells; treated HeLa cells, monocyte cell line THP-1, FIG. 2): activated a dose-dependent secretion of IL-8
C[C@H]1CCC/C=C/[C@@H]2C[C@H](O)C[C@H]2[C@H](O)/C=C/C(=O)O1 [brefledin A, brefeldin A]	did not induce immunostimulatory activity	–
CNc1ccc2oc(C[C@H]3O[C@@]4(CC[C@H]3C)O[C@H]([C@H](C)C(=O)c3ccc[nH]3)[C@H](C)C[C@H]4C)nc2c1C(=O)O [calcimycin, calcimycin A23187]	did not induce immunostimulatory activity	–
C/C=C(/C)C(=O)O[C@@H]1C[C@H]2[C@@H]([C@H]1C)[C@@H]1OC(=O)[C@@](C)(O)[C@@]1(O)C(OC(=O)[C@@H](C)CC)C[C@]2(C)OC(C)=O (stereo partly shown) [compound 77]	–	activity of synthetic thapsigargin analogue [1]: potent activity
C[C@@H]1C[C@@H]([C@H](O)CC2CC(=O)NC(=O)C2)C(=O)[C@@H](C)C1 [cycloheximide]	did not induce immunostimulatory activity	–
bacterial lipopolysaccharide	–	recognition (NF-κB activity, luciferase) [2]: improved recognition
pam3cys-ser-(lys)4, hydrochloride	–	recognition (NF-κB activity, luciferase) [2]: recognized; recognition (NF-κB activity, luciferase) [3]: recognition
tunicamycin	did not induce immunostimulatory activity	–
